Results: PubChem BioAssay AID256 (DTP/NCI, 2004)
“And” between values parts separate entries of the source, which are not always exact repeats. Equal entries are not always repeated. Inconclusive results and toxic doses are left out. Rule for the calls: active = survival T/C of 150% or more; inactive = T/C below 125% in these data.

Tested on: CD2F1 mice, L1210 leukemia ip, survival T/C
Test: NCI In Vivo Anticancer Drug Screen. Data for tumor model L1210 Leukemia (intraperitoneal) in CD2F1 (CDF1) mice
Conditions: higher = longer survival
How it was run: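 Antitumor effect is scored in animals hosting a serially transplanted tumor. Values compare compound-dosed animals against vehicle-only controls as a simple quotient.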

[1] = endpoint: mean survival time, dose: 100.0 mg/kg/injection, schedule: Q01DX009 (ip), vehicle: saline with Tween-80
[2] = endpoint: mean survival time, dose: 100.0 mg/kg/injection, schedule: Q04DX003 (ip), vehicle: saline
[3] = endpoint: mean survival time, dose: 200.0 mg/kg/injection, schedule: Q04DX003 (ip), vehicle: saline with Tween-80
[4] = endpoint: mean survival time, dose: 200.0 mg/kg/injection, schedule: Q04DX003 (ip), vehicle: saline
[5] = endpoint: mean survival time, dose: 400.0 mg/kg/injection, schedule: Q01DX009 (ip), vehicle: saline with Tween-80
[6] = endpoint: mean survival time, dose: 400.0 mg/kg/injection, schedule: Q04DX003 (ip), vehicle: saline
[7] = endpoint: mean survival time, dose: 100.0 mg/kg/injection, schedule: Q04DX003 (ip), vehicle: saline with Tween-80
[8] = endpoint: mean survival time, dose: 400.0 mg/kg/injection, schedule: Q04DX003 (ip), vehicle: saline with Tween-80
[9] = endpoint: mean survival time, dose: 12.5 mg/kg/injection, schedule: Q04DX002 (ip), vehicle: saline with Tween-80
[10] = endpoint: mean survival time, dose: 25.0 mg/kg/injection, schedule: Q04DX002 (ip), vehicle: saline with Tween-80
[11] = endpoint: mean survival time, dose: 50.0 mg/kg/injection, schedule: Q04DX002 (ip), vehicle: saline with Tween-80
[12] = endpoint: mean survival time, dose: 100.0 mg/kg/injection, schedule: Q04DX002 (ip), vehicle: saline with Tween-80
[13] = endpoint: mean survival time, dose: 100.0 mg/kg/injection, schedule: Q01DX001 (ip), vehicle: saline with Tween-80
[14] = endpoint: mean survival time, dose: 200.0 mg/kg/injection, schedule: Q01DX001 (ip), vehicle: saline with Tween-80
[15] = endpoint: mean survival time, dose: 400.0 mg/kg/injection, schedule: Q01DX001 (ip), vehicle: saline with Tween-80

Measured: T/C

OCC(O)C(O)C(O)C(O)CO (stereo unspecified)
inactive: [1] 98 % of control | [2] 96 % of control | [3] 97 % of control | [4] 98 % of control | [5] 98 % of control | [6] 96 % of control | endpoint: median survival time, dose: 75.0 mg/kg/injection, schedule: Q01DX009 (ip), vehicle: saline with Tween-80 100 % of control | endpoint: median survival time, dose: 150.0 mg/kg/injection, schedule: Q01DX009 (ip), vehicle: saline with Tween-80 97 % of control | endpoint: median survival time, dose: 600.0 mg/kg/injection, schedule: Q01DX009 (ip), vehicle: saline with Tween-80 100 % of control

O=C1c2ccccc2C(=O)N1CC/C=C/c1ccc([N+](=O)[O-])cc1Cl
inactive: [7] 98 % of control | [3] 91 % of control | [8] 100 % of control

Cc1nc(=S)c2ccccc2[nH]1
inactive: endpoint: mean survival time, dose: 100.0 mg/kg/injection, schedule: Q01DX001 (ip), vehicle: Klucel (hydroxypropylcellulose) (HPC) 97 % of control | endpoint: mean survival time, dose: 200.0 mg/kg/injection, schedule: Q01DX001 (ip), vehicle: Klucel (hydroxypropylcellulose) (HPC) 94 % of control | endpoint: mean survival time, dose: 400.0 mg/kg/injection, schedule: Q01DX001 (ip), vehicle: Klucel (hydroxypropylcellulose) (HPC) 100 % of control

N#CC(=C=[N-])C(C#N)(C#N)Cc1ccccc1.[C-]#[O+].[C-]#[O+].[Fe+6].[c-]1[c-][c-][cH-][c-]1
inactive: [9] 93 % of control | [10] 97 % of control | [11] 97 % of control

CC(C)N=C1N(C(C)C)C([O-])=N[N+]1(C)C
inactive: endpoint: mean survival time, dose: 100.0 mg/kg/injection, schedule: Q01DX009 (ip), vehicle: saline 101 % of control | [2] 108 % of control | endpoint: mean survival time, dose: 200.0 mg/kg/injection, schedule: Q01DX009 (ip), vehicle: saline 101 % of control | [4] 96 % of control | endpoint: mean survival time, dose: 400.0 mg/kg/injection, schedule: Q01DX009 (ip), vehicle: saline 101 % of control | [6] 107 % of control

COc1ccc(C(O)c2ccccc2S(=O)(=O)N(C)C)cc1 (stereo unspecified)
inactive: endpoint: mean survival time, dose: 100.0 mg/kg/injection, schedule: Q01DX009 (ip), vehicle: saline sonified 105 % of control | endpoint: mean survival time, dose: 200.0 mg/kg/injection, schedule: Q01DX009 (ip), vehicle: saline sonified 96 % of control | endpoint: mean survival time, dose: 400.0 mg/kg/injection, schedule: Q01DX009 (ip), vehicle: saline sonified 93 % of control

O=S(=O)(O)C(O)c1cccc2ccccc12 (stereo unspecified)
inactive: [7] 91 % of control | [3] 91 % of control | [8] 94 % of control

N#CN=Nc1ccc(Cl)cc1
inactive: endpoint: mean survival time, dose: 9.5 mg/kg/injection, schedule: Q01DX001 (ip), vehicle: other 97 % of control | endpoint: mean survival time, dose: 19.0 mg/kg/injection, schedule: Q01DX001 (ip), vehicle: other 97 % of control | endpoint: mean survival time, dose: 38.0 mg/kg/injection, schedule: Q01DX001 (ip), vehicle: other 89 % of control

O=C1OC(=O)C2CCCC3CCCC1C32 (stereo unspecified)
inactive: [12] 108 % of control | endpoint: mean survival time, dose: 200.0 mg/kg/injection, schedule: Q04DX002 (ip), vehicle: saline with Tween-80 108 % of control

CC1CC2C3(C1)CC(C(=O)OC3=O)C2(C)C (stereo unspecified)
inactive: endpoint: mean survival time, dose: 75.0 mg/kg/injection, schedule: Q01DX001 (ip), vehicle: other 94 % of control | endpoint: mean survival time, dose: 150.0 mg/kg/injection, schedule: Q01DX001 (ip), vehicle: other 92 % of control | endpoint: mean survival time, dose: 300.0 mg/kg/injection, schedule: Q01DX001 (ip), vehicle: other 92 % of control

CC(=O)NC1C(OC(C)=O)OC(COC(c2ccccc2)(c2ccccc2)c2ccccc2)C(O)C1OC(C)=O (stereo unspecified)
inactive: [9] 93 % of control | endpoint: mean survival time, dose: 12.5 mg/kg/injection, schedule: Q04DX003 (ip), vehicle: saline with Tween-80 103 % of control | endpoint: mean survival time, dose: 25.0 mg/kg/injection, schedule: Q04DX003 (ip), vehicle: saline with Tween-80 95 % of control | endpoint: mean survival time, dose: 50.0 mg/kg/injection, schedule: Q01DX001 (ip), vehicle: saline with Tween-80 88 % of control | [11] 91 % of control | endpoint: mean survival time, dose: 50.0 mg/kg/injection, schedule: Q04DX003 (ip), vehicle: saline with Tween-80 87 % of control | [13] 87 % of control | [12] 88 % of control | [7] 93 % of control | [14] 88 % of control | [15] 90 % of control

O=C1CSc2ccccc2N1CCN1C(=O)CSc2ccccc21
inactive: endpoint: mean survival time, dose: 100.0 mg/kg/injection, schedule: Q04DX003 (ip), vehicle: Klucel (hydroxypropylcellulose) (HPC) 90 % of control | endpoint: mean survival time, dose: 200.0 mg/kg/injection, schedule: Q04DX003 (ip), vehicle: Klucel (hydroxypropylcellulose) (HPC) 86 % of control | endpoint: mean survival time, dose: 400.0 mg/kg/injection, schedule: Q04DX003 (ip), vehicle: Klucel (hydroxypropylcellulose) (HPC) 86 % of control

O=C1C=CC(=O)c2c(Cl)ccc(O)c21
inactive: endpoint: mean survival time, dose: 3.13 mg/kg/injection, schedule: Q04DX002 (ip), vehicle: other 102 % of control | endpoint: mean survival time, dose: 6.25 mg/kg/injection, schedule: Q04DX002 (ip), vehicle: other 102 % of control | endpoint: mean survival time, dose: 12.5 mg/kg/injection, schedule: Q04DX002 (ip), vehicle: other 96 % of control and 102 % of control

O=c1c(Br)cnc2ccccn12
inactive: endpoint: mean survival time, dose: 12.5 mg/kg/injection, schedule: Q01DX001 (ip), vehicle: saline 107 % of control | endpoint: mean survival time, dose: 25.0 mg/kg/injection, schedule: Q01DX001 (ip), vehicle: saline 98 % of control | endpoint: mean survival time, dose: 50.0 mg/kg/injection, schedule: Q01DX001 (ip), vehicle: saline 102 % of control

Cn1c(N)nc2nc[nH]c2c1=S
inactive: endpoint: mean survival time, dose: 16.0 mg/kg/injection, schedule: Q01DX008 (iv), vehicle: saline 100 % of control | endpoint: mean survival time, dose: 32.0 mg/kg/injection, schedule: Q01DX008 (iv), vehicle: saline 98 % of control | endpoint: mean survival time, dose: 64.0 mg/kg/injection, schedule: Q01DX008 (iv), vehicle: saline 105 % of control

CC(=O)OC1CCC2(C)C(CCC3(C)C2CCC2C4C5OC(=O)C4(CCC5(C)C)CCC23C)C1(C)C (stereo unspecified)
inactive: endpoint: mean survival time, dose: 6.25 mg/kg/injection, schedule: Q04DX002 (ip), vehicle: saline with Tween-80 114 % of control | [9] 100 % of control | [10] 100 % of control | [11] 88 % of control | [12] 98 % of control

CC(=O)OCC1OC(n2cnc3c(Cl)ncnc32)C(OC(C)=O)C1OC(C)=O (stereo unspecified)
inactive: endpoint: mean survival time, dose: 12.5 mg/kg/injection, schedule: Q01DX005 (ip), vehicle: other 94 % of control | endpoint: mean survival time, dose: 25.0 mg/kg/injection, schedule: Q01DX005 (ip), vehicle: other 88 % of control | endpoint: mean survival time, dose: 50.0 mg/kg/injection, schedule: Q01DX005 (ip), vehicle: other 98 % of control | endpoint: mean survival time, dose: 100.0 mg/kg/injection, schedule: Q01DX005 (ip), vehicle: other 96 % of control | endpoint: mean survival time, dose: 200.0 mg/kg/injection, schedule: Q01DX005 (ip), vehicle: other 100 % of control | endpoint: mean survival time, dose: 400.0 mg/kg/injection, schedule: Q01DX005 (ip), vehicle: other 102 % of control

CC(=O)C(C(c1ccccc1)C1CCCc2ccccc21)N1CCOCC1 (stereo unspecified)
inactive: [1] 104 % of control | [7] 103 % of control | endpoint: mean survival time, dose: 200.0 mg/kg/injection, schedule: Q01DX009 (ip), vehicle: saline with Tween-80 98 % of control | [3] 100 % of control | [5] 95 % of control | [8] 101 % of control

c1ccc(CN2CCC(Nc3ccccc3)(c3nnnn3C3CCCCC3)CC2)cc1
inactive: [13] 95 % of control | [14] 96 % of control | [15] 90 % of control
